Results from patent US9139593B2, “Azetidine compounds, compositions and methods of use” (Hoffman-La Roche Inc., priority 2011, dated 2015).

biological target: Human Soluble Epoxide Hydrolase (Homo sapiens (Human), UniProt P34913); assay: Human Soluble Epoxide Hydrolase Enzyme Assay; format: biochemical; settings: resorufin epoxide substrate, fluorescence, room temperature, triplicates
Protocol: Human Soluble Epoxide Hydrolase Enzyme Assay
Test compounds (1.6 mM stock in DMSO) were diluted 3 fold in series in DMSO and 0.8 microliters per well were added into 384-well NBS microplates (Corning). Resorufin epoxide substrate (20 uM stock in DMSO) was diluted to 5 μM with Assay Buffer (25 mM bis-Tris-HCl, pH 7.0, 1 mM DTT and 0.2 mg/ml BSA) and 8 microliters per well were added to the microplates. Thirty two microliters per well of 3.6 nM soluble epoxide hydrolase in Assay Buffer was then added. The samples were incubated at room temperature and assay signals were monitored by reading excitation at 530 nm and emission fluorescence at 590 nm on a PlateVision (Zeiss) reader every 2 minutes for 8 times. The reaction rate, % inhibition and IC50 values were calculated using AssayAnalyzer and Condoseo software (Genedata AG, Basel, Switzerland).
All the experiments were done in triplicates.
The compounds of the present invention were tested for their capacity to inhibit sEH activity.

Sequence of Human Soluble Epoxide Hydrolase (P34913 whole entry): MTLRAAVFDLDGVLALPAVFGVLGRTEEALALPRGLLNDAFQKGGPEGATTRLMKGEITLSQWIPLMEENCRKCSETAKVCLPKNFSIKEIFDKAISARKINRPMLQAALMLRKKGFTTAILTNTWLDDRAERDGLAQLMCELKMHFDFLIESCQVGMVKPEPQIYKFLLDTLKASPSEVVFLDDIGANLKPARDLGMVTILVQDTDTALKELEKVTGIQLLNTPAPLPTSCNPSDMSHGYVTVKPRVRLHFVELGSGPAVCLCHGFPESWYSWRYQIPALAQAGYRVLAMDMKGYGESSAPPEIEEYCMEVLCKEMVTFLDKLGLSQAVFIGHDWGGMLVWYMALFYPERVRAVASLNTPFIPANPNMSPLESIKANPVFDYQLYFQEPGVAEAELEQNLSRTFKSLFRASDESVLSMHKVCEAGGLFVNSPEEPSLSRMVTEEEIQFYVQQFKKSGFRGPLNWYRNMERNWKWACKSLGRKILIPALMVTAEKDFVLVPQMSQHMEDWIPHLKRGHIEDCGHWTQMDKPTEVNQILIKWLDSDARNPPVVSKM

`O=C(NCc1ccc(Cl)cc1Cl)N1CC2CN(C(=O)c3ccccc3)C2C1` (racemic) [Example 18, rac-6-Benzoyl-3,6-diaza-bicyclo[3.2.0]heptane-3-carboxylic acid 2,4-dichloro-benzylamide] and `O=C(NCc1ccc(Cl)cc1Cl)N1CC2CN(S(=O)(=O)c3ccccc3)C2C1` (racemic) [Example 19, rac-6-Benzenesulfonyl-3,6-diaza-bicyclo[3.2.0]heptane-3-carboxylic acid 2,4-dichloro-benzylamide] are within 1.5-fold of each other in IC50: 183 nM for the first, 238 nM for the second.

First: O=C(NCc1ccc(Cl)cc1Cl)N1CC2CN(c3ncccn3)C2C1 (racemic) [Example 20, rac-6-Pyrimidin-2-yl-3,6-diaza-bicyclo[3.2.0]heptane-3-carboxylic acid 2,4-dichloro-benzylamide]
Second: O=C(NCc1ccc(Cl)cc1Cl)N1CC2(C1)CN(c1ncccn1)C2 [Example 4, 6-Pyrimidin-2-yl-2,6-diaza-spiro[3.3]heptane-2-carboxylic acid 2,4-dichloro-benzylamide]
The IC50 of the first is 6.4-fold lower: 361 nM for the first, 2320 nM for the second. The first is the more potent here.

Going from `O=C(O)c1ccc(N2CC3CN(C(=O)NCc4ccc(Cl)cc4Cl)CC32)cc1` (racemic) [Example 21, rac-4-[3-(2,4-Dichloro-benzylcarbamoyl)-3,6-diaza-bicyclo[3.2.0]hept-6-yl]-benzoic acid] to `O=C(O)c1ccc(N2CC3(CN(C(=O)NCc4ccc(Cl)cc4Cl)C3)C2)cc1` [Example 2, 4-[6-(2,4-Dichloro-benzylcarbamoyl)-2,6-diaza-spiro[3.3]hept-2-yl]-benzoic acid], the IC50 rises from 351 nM to 1260 nM (3.6-fold).

Going from `O=C(NCc1ccc(Cl)cc1Cl)N1CC2(C1)CN(C(=O)c1ccccc1)C2` [Example 1, 6-Benzoyl-2,6-diaza-spiro[3.3]heptane-2-carboxylic acid 2,4-dichloro-benzylamide] to `O=C(NCc1ccc(Cl)cc1Cl)N1CC2(CCN2c2ncccn2)C1` [Example 7, N-(2,4-Dichlorobenzyl)-1-(pyrimidin-2-yl)-1,6-diazaspiro[3.3]heptane-6-carboxamide], the IC50 falls from 241 nM to 125 nM (1.9-fold). The second is the more potent here.

Compared with `O=C(NCc1ccc(Cl)cc1Cl)N1CC2(CCN2S(=O)(=O)c2ccc(F)cc2)C1` [Example 5, N-(2,4-Dichlorobenzyl)-1-(4-fluorophenylsulfonyl)-1,6-diazaspiro[3.3]heptane-6-carboxamide], `O=C(NCc1ccc(Cl)cc1Cl)N1CC2(CCN2S(=O)(=O)c2ccc(Cl)cc2)C1` [Example 11, 1-(4-Chloro-benzenesulfonyl)-1,6-diaza-spiro[3.3]heptane-6-carboxylic acid 2,4-dichloro-benzylamide] is 2.3-fold higher in IC50: 284 nM for the first, 640 nM for the second. The first is the more potent here.

First: O=C(NCc1ccc(Cl)cc1Cl)N1CCC12CN(S(=O)(=O)c1ccc(Cl)cc1)C2 [Example 6, 6-(4-Chlorophenylsulfonyl)-N-(2,4-dichlorobenzyl)-1,6-diazaspiro[3.3]heptane-1-carboxamide]
Second: O=C(NCc1ccc(Cl)cc1Cl)N[C@@H]1CCC12CN(S(=O)(=O)c1ccc(Cl)cc1)C2 [Example 16, (R)-1-(2-(4-Chlorophenylsulfonyl)-2-azaspiro[3.3]heptan-5-yl)-3-(2,4-dichlorobenzyl)urea]
The IC50 of the first is 8.4-fold lower: 321 nM for the first, 2690 nM for the second. The first is the more potent here.

Going from `O=C(NCCCc1ccccc1)N1CC2(CCN2Cc2ccccc2)C1` [Example 8, Benzyl-1,6-diaza-spiro[3.3]heptane-6-carboxylic acid (3-phenyl-propyl)-amide] to `O=C(NCCCc1ccccc1)N1CC2(CCN2S(=O)(=O)c2ccccc2C(F)(F)F)C1` [Example 13, 1-(2-trifluoromethyl-benzenesulfonyl)-1,6-diaza-spiro[3.3]heptane-6-carboxylic acid (3-phenyl-propyl)-amide], the IC50 falls from 1980 nM to 476 nM (4.2-fold).

Compared with `O=C(NCCCc1ccccc1)N1CC2(CCN2S(=O)(=O)c2ccc(Cl)cc2)C1` [Example 9, 1-(4-Chloro-benzenesulfonyl)-1,6-diaza-spiro[3.3]heptane-6-carboxylic acid (3-phenyl-propyl)-amide], `O=C(NCc1ccccc1OC(F)(F)F)N1CC2(CCN2S(=O)(=O)c2ccc(Cl)cc2)C1` [Example 12, 1-(4-Chloro-benzenesulfonyl)-1,6-diaza-spiro[3.3]heptane-6-carboxylic acid 2-trifluoromethoxy-benzylamide] is 8.2-fold lower in IC50: 1990 nM for the first, 243 nM for the second. The second is the more potent here.

Going from `O=C(NC12CC3CC(CC(C3)C1)C2)N1CC2(CCN2S(=O)(=O)c2ccc(Cl)cc2)C1` [Example 10, 1-(4-Chloro-benzenesulfonyl)-1,6-diaza-spiro[3.3]heptane-6-carboxylic acid adamantan-1-ylamide] to `O=C(NCc1ccc(Cl)cc1Cl)N[C@H]1CCC12CN(S(=O)(=O)c1ccc(Cl)cc1)C2` [Example 17, (S)-1-(2-(4-Chlorophenylsulfonyl)-2-azaspiro[3.3]heptan-5-yl)-3-(2,4-dichlorobenzyl)urea], the IC50 falls from 2550 nM to 678 nM (3.8-fold).

Going from `O=C(NCCCc1ccccc1)[C@@H]1CCC12CN(S(=O)(=O)c1ccccc1Cl)C2` [Example 14, (R)-2-(2-Chlorophenylsulfonyl)-N-(3-phenylpropyl)-2-azaspiro[3.3]heptane-5-carboxamide] to `O=C(NCCCc1ccccc1)[C@H]1CCC12CN(S(=O)(=O)c1ccccc1Cl)C2` [Example 15, (S)-2-(2-Chlorophenylsulfonyl)-N-(3-phenylpropyl)-2-azaspiro[3.3]heptane-5-carboxamide], the IC50 falls from 2790 nM to 288 nM (9.7-fold).
